# Experimental data reported in patent publication US5556990A, “Polyarylcarbamoylaza- and -carbamoylalkanedioic acids” (Rhone-Poulenc Rorer Pharmaceuticals Inc., priority 1994, dated 1996).
# Structures can show the parent of a compound that is named as a salt.
# Target: T1, squalene synthase (Rattus norvegicus, UniProt Q02769)
# T1 construct: Microsomes are prepared by centrifugation (100,000 g) and then resuspended in the assay buffer; from tissue; host or cells: liver microsomes of male Sprague-Dawley rats (animals from Taconic Farms)
# T1 sequence (Q02769 1-416): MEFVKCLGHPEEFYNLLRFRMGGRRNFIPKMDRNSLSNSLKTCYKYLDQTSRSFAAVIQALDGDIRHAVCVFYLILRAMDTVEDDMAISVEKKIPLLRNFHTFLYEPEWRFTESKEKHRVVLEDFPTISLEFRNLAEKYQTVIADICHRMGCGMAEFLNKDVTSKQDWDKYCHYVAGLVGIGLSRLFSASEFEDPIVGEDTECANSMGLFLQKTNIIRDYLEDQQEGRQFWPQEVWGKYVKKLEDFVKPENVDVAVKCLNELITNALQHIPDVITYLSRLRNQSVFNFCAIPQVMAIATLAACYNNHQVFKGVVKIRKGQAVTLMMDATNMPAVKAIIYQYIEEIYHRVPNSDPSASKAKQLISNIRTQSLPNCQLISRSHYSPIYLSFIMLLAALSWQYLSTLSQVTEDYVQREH
# Assay: Squalene Synthase Inhibition Assay (rat liver microsomes, [3H]FPP substrate, HEPES buffer)
# Format: biochemical, male Sprague-Dawley rats
# Description: Squalene Synthase Inhibition Assay
# The squalene synthase assay used is described by Amin et al. in "Bisphosphonates Used for the Treatment of Bone Disorders Inhibit Squalene Synthase and Cholesterol Biosynthesis," Journal of Lipid Research, 33, 1657-1663 (1992).
# I. Preparation of Assay Substances:
# Test solutions are prepared fresh in 100% DMSO or dH2 O. Subsequent dilutions are made in the same solvent. Compounds are tested initially at 1 μM (final concentrations).
# Potassium Phosphate (50 mM,) pH 7.4, and HEPES (4-(2-hydroxyethyl)-1-piperazineethanesulfonic acid, 50 mM) pH 7.4 stock buffers are prepared and stored at 4° C. until use.
# C) Microsomal Enzyme Preparation:
# Fresh livers from male Sprague-Dawley rats (Taconic Farms, Germantown, N.Y.) weighing 150-200 g are collected after exsanguination. All subsequent procedures are performed at 4° C. The liver is homogenized in the assay buffer (50 mM, pH 7.4). Cellular fractions are separated as described by Popjak, G. in "Enzymes of sterol biosynthesis in liver and intermediates of sterol biosynthesis," Meth. Enzymol. 15 393-454 (1969). Microsomes are prepared by centrifugation (100,000 g) and then resuspended in the assay buffer. Microsomes are rehomogenized with a motor-driven Teflon pestle to yield a uniform suspension (~30 mg protein/ml), aliquoted, and stored at -80° C. until use.
# II. Squalene Synthase Assay
# The procedure is a modification of those described by Popjack (vida supra) and Poulter et al. in "Squalene synthase. Inhibition by ammonium analogues of carbocationic intermediates in the conversion of presqualene diphosphate to squalene" J. Am. Chem. Soc. 111, 3734-3739 (1989). The assay is performed in 1 ml of 50 mM assay buffer, pH 7.4, containing 10 mM MgCl2, 0.5 mM NADPH, microsomes (30 μg protein), a test compound dissolved in distilled water or dimethylsulfoxide, and substrate [^3 H]FPP (0.5 μM, 0.27 Ci/mmol) in a 16×125 mm glass screw-cap tube. All components except [3H]FPP are preincubated for 10 min. at 37° C. The reaction is initiated by the addition of [^3 H]FPP. After 10 min at 37° C., the reaction is terminated by the addition of 1 ml 15% KOH in ethanol. The tubes are incubated at 65° C. for 30 min. to solubilize proteins. The mixture is extracted with 5 ml petroleum ether for 10 min. After freezing the lower aqueous phase, the organic phase is transferred to glass tubes containing 2 ml distilled water. After washing the lower aqueous phase is frozen and the petroleum ether phase is removed and counted with 10 ml Ready Safe liquid scintillation cocktail using a Beckman LS-9000 scintillation counter. DPM values are adjusted against a blank (no enzyme).
# The difference in radioactivity in the presence and absence of the test compound is used to determine the level of inhibition. The IC50 values are calculated using a linear regression program of Tallarida and Murray (1987). Tallarida, R. J. and Murray, R. B. Manual of pharmacologic calculations with computer programs. Springer-Verlag, 1987.
row,Molecule,IC50
1,"4-{3-[4-(2-methoxyquinolin-6-yl)phenyl]-1,2,5,6-tetrahydro-pyridylcarbonyl}-3-hydroxy-3-carboxybutanoic acid, disodium salt [Example 12]",36 nM
2,CCOC(=O)CC(O)(CC(=O)N[C@@H]1CCCC[C@H]1OCc1ccc(-c2nc3ccccc3o2)cc1)C(=O)OCC (relative stereo),10000 nM
3,"O=C(O)CC(O)(CC(=O)N[C@@H]1CCCC[C@H]1OCc1ccc(-c2nc3ccccc3o2)cc1)C(=O)O (relative stereo) [Example 5, 4-[2-α-(4-Benzoxazol-2-ylbenzyloxy)cyclohexyl-β-carbamoyl]-3-hydroxy-3-carboxybutyric acid]",190 nM
4,"O=C(O)CC(O)(CC(=O)N1CCCC(O)(c2ccc(-c3ccc4ccccc4c3)cc2)C1)C(=O)O (stereo not drawn) [Example 1, 4-[3-Hydroxy-3-(4-naphth2-ylphenyl)piperidin-1-ylcarbonyl]-3-hydroxy-3-carboxybutanoic acid]",27 nM
5,"O=C(O)CC(O)(CC(=O)N1CCCC(COCc2ccc(-c3nc4ccccc4o3)cc2)C1)C(=O)O (stereo not drawn) [Example 19, 4-[3-(4-(Benzoxazol-2-yl)benzyloxymethyl)piperidin-1-ylcarbonyl]-3-hydroxy-3-carboxybutanoic acid, disodium salt]",51 nM
6,"CC[C@@H](COCc1ccc(-c2nc3ccccc3o2)cc1)NC(=O)CC(O)(CC(=O)O)C(=O)O (stereo partly drawn) [Example 22, 3-{N-[1-(4-Benzoxazol-2-ylbenzyloxy)but-2-yl]carbamoyl}-3-hydroxy-3-carboxybutanoic acid, disodium salt]",77 nM
7,"COc1cccc(-c2ccc(C3(O)CCCN(C(=O)CC(O)(CC(=O)O)C(=O)O)C3)cc2)c1 (stereo not drawn) [Example 24, disodium salt]",100 nM
8,"CC(O)(CNC(=O)C(O)(CC(=O)O)CC(=O)O)c1ccc(-c2ccc3ccccc3c2)cc1 (stereo not drawn) [Example 28, 3-Hydroxy-3-{-N-[2-hydroxy-2-(4-naphthalen-2-yl-phenyl)prop-2-yl]carbamoyl}pentandioic acid, disodium salt]",100 nM
9,"O=C(O)CC(NC(=O)NC1CCCCC1OCc1ccc(-c2nc3ccccc3o2)cc1)C(=O)O [Example 30, 3-(R)-(N-{2-α-[4-(Benzoxazol-2-yl)benzyloxy]cyclohexyl}-β-carbamoylaza)-3-carboxypropanoic acid]",2600 nM
